Key:
Assay in all cases: relative viability (nuclei count vs DMSO), 5 days (fraction); higher = more cells survive
[1] = compound: NS(=O)(=O)OC[C@@H]1C[C@@H](n2ccc3c(N[C@H]4CCc5ccccc54)ncnc32)C[C@@H]1O [MLN4924] + O=C(c1cc(Cc2n[nH]c(=O)c3ccccc23)ccc1F)N1CCN(C(=O)C2CC2)CC1 [Olaparib] (partner 8 µM)
Procedure, shortened: (§1)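 Relative viability was taken as the ratio of nuclei in treated wells to nuclei in vehicle wells. Lung cancer cell lines in 1536-well plates received compounds by pin tool one day after seeding, either one drug alone or a fixed anchor-drug dose plus five library-drug doses (not always all listed) in √10 steps. Nuclei were counted on 4× images after 5 days of treatment, and values are medians of duplicate plates.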

[2] = compound: NS(=O)(=O)OC[C@@H]1C[C@@H](n2ccc3c(N[C@H]4CCc5ccccc54)ncnc32)C[C@@H]1O [MLN4924] + N=C(N)NC(=N)NCCc1ccccc1 [Phenformin] (partner 250 µM)
Procedure, shortened: as §1

[3] = compound: CC[C@H](C)N1C=C(C2=C(C=C(C=C21)C3=CN=C(C=C3)N4CCNCC4)C(=O)NCC5=C(C=C(NC5=O)C)C)C [GSK126] + CS(=O)(=O)CCNCc1ccc(-c2ccc3ncnc(Nc4ccc(OCc5cccc(F)c5)c(Cl)c4)c3c2)o1 [Lapatinib] (partner 2 µM)
Procedure, shortened: as §1

[4] = compound: C1CC(C1)(C(=O)O)C(=O)O.[NH2-].[NH2-].[Pt+2] [Carboplatin] + N=C(N)NC(=N)NCCc1ccccc1 [Phenformin] (partner 250 µM)
Procedure, shortened: as §1

Row | Cell Line | relative viability ([1]; first compound 0.04 µM) | relative viability ([1]; first compound 0.1265 µM) | relative viability ([1]; first compound 0.4 µM) | relative viability ([1]; first compound 1.265 µM) | relative viability ([1]; first compound 4 µM) | relative viability ([2]; first compound 0.04 µM) | relative viability ([2]; first compound 0.1265 µM) | relative viability ([2]; first compound 0.4 µM) | relative viability ([2]; first compound 1.265 µM) | relative viability ([2]; first compound 4 µM) | relative viability ([3]; first compound 0.08 µM) | relative viability ([3]; first compound 0.253 µM) | relative viability ([3]; first compound 0.8 µM) | relative viability ([3]; first compound 2.53 µM) | relative viability ([3]; first compound 8 µM) | relative viability ([4]; first compound 0.08 µM) | relative viability ([4]; first compound 0.253 µM) | relative viability ([4]; first compound 0.8 µM) | relative viability ([4]; first compound 2.53 µM) | relative viability ([4]; first compound 8 µM)
1 | COR-L23 | 0.32 | 0.331 | 0.199 | 0.124 | 0.114 | 0.42 | 0.332 | 0.326 | 0.133 | 0.0871 | 1.04 | 0.958 | 0.943 | 0.914 | 0.818 | 0.453 | 0.394 | 0.428 | 0.353 | 0.241
2 | COR-L 105 | 0.5 | 0.568 | 0.427 | 0.278 | 0.335 | 0.567 | 0.366 | 0.325 | 0.244 | 0.301 | 0.35 | 0.371 | 0.39 | 0.372 | 0.339 | 0.576 | 0.418 | 0.481 | 0.411 | 0.373
3 | EKVX | 0.801 | 0.588 | 0.531 | 0.206 | 0.169 | 0.228 | 0.221 | 0.239 | 0.175 | 0.138 | 0.226 | 0.22 | 0.211 | 0.203 | 0.221 | 0.248 | 0.214 | – | 0.227 | 0.22
4 | EMC-BAC-2 | 0.397 | 0.286 | 0.225 | 0.214 | 0.241 | 0.37 | 0.424 | 0.296 | 0.193 | 0.218 | 0.913 | 0.899 | 0.89 | 0.88 | 0.944 | 0.559 | 0.581 | 0.52 | 0.521 | 0.461
5 | EPLC-272H | 0.352 | 0.176 | 0.0677 | 0.0995 | 0.105 | 0.343 | 0.325 | 0.0478 | 0.103 | 0.126 | 0.995 | 0.975 | 0.851 | 1.06 | 0.915 | 0.345 | 0.347 | 0.309 | 0.298 | 0.313
6 | H3255 | 0.481 | 0.372 | 0.297 | 0.253 | 0.268 | 0.374 | 0.331 | 0.265 | 0.264 | 0.325 | 0.24 | 0.243 | 0.302 | 0.272 | 0.269 | 0.291 | 0.381 | 0.395 | 0.349 | 0.364
7 | HARA | 0.401 | 0.413 | 0.127 | 0.0734 | 0.107 | 0.35 | 0.355 | 0.177 | 0.0555 | 0.0476 | 0.734 | 0.602 | 0.736 | 0.804 | 0.807 | 0.466 | 0.518 | 0.372 | 0.426 | 0.425
8 | HCC-15 | 0.318 | 0.164 | 0.159 | 0.106 | 0.0825 | 0.319 | 0.191 | 0.145 | 0.0825 | 0.0982 | 0.841 | 0.888 | 0.806 | 0.785 | 0.727 | 0.562 | 0.47 | 0.441 | 0.407 | 0.37
9 | HCC-44 | 0.882 | 0.748 | 0.694 | 0.538 | 0.414 | 0.144 | 0.172 | 0.0837 | 0.0692 | 0.102 | 0.998 | 1.07 | 1.04 | 0.846 | 1.02 | 0.344 | 0.191 | 0.194 | 0.187 | 0.144
10 | HCC-78 | 0.867 | 0.967 | 0.684 | 0.222 | 0.22 | 0.694 | 0.634 | 0.888 | 0.219 | 0.203 | 0.713 | 1.06 | 0.886 | 0.711 | 0.722 | 0.829 | 0.685 | 0.641 | 0.726 | 0.744
11 | HCC-366 | 0.341 | 0.352 | 0.272 | 0.0846 | 0.0262 | 0.612 | 0.634 | 0.454 | 0.11 | 0.0866 | 1.02 | 0.948 | 1.08 | 1.09 | 1.12 | 0.619 | 0.637 | 0.662 | 0.575 | 0.467
12 | HCC-827 | 0.637 | 0.412 | 0.34 | 0.164 | 0.141 | 0.453 | 0.462 | 0.316 | 0.144 | 0.136 | 0.189 | 0.179 | 0.19 | 0.152 | 0.197 | 0.444 | 0.394 | 0.428 | 0.366 | 0.365
13 | HOP-62 | 0.205 | 0.303 | 0.0801 | 0.0633 | 0.0555 | 0.393 | 0.335 | 0.134 | 0.0578 | 0.0991 | 1.17 | 1.05 | 1.07 | 1.06 | 0.937 | 0.713 | 0.643 | 0.628 | 0.654 | 0.548
14 | LC-2-ad | 0.68 | 0.53 | 0.335 | 0.269 | 0.197 | 0.506 | 0.491 | 0.372 | 0.223 | 0.203 | 1.05 | 1.03 | 0.9 | 0.894 | 1.05 | 0.661 | 0.551 | 0.525 | 0.517 | 0.386
15 | LCLC-97TM1 | 0.282 | 0.138 | 0.0947 | 0.0518 | 0.0597 | 0.417 | 0.314 | 0.288 | 0.108 | 0.137 | 1.22 | – | 1.11 | 1.66 | 0.841 | 0.483 | 0.399 | 0.421 | 0.438 | 0.394
